Where a SMILES comes first, the peptide text is derived from it. Bridges are numbered along the chain shown (N, C = ends). [ ]: non-standard residue; d: D form. The star is where a group is joined. hPhe(3-Cl-4-CF3) = N[C@@H](CCc1ccc(C(F)(F)F)c(Cl)c1)C(=O)O; NPrPhe(4-CF3) = CCCN[C@@H](Cc1ccc(C(F)(F)F)cc1)C(=O)O; NMeGly(cPent) = CN[C@H](C(=O)O)C1CCCC1; NMeD = CN[C@@H](CC(=O)O)C(=O)O; NMeL = CN[C@@H](CC(C)C)C(=O)O; NMeS = CN[C@@H](CO)C(=O)O; Morpholide = C1CN(*)CCO1; Ac5c = NC1(C(=O)O)CCCC1; Sar = CNCC(=O)O
Columns and labels:
[1] = target: GDP-bound NRAS wild-type protein (Homo sapiens, UniProt P01111); assay: Binding to NRAS by surface plasmon resonance (SPR), Single Cycle Kinetics; conditions: for NRAS/KRAS (ratio of KD value with respect to NRAS to KD value with respect to KRAS) / NRAS/KRAS (ratio of KD value for NRAS to KD value for KRAS): SPR, GDP-bound NRAS wild-type vs GDP-bound KRAS wild-type
Sequence of GDP-bound NRAS wild-type protein (P01111 whole entry): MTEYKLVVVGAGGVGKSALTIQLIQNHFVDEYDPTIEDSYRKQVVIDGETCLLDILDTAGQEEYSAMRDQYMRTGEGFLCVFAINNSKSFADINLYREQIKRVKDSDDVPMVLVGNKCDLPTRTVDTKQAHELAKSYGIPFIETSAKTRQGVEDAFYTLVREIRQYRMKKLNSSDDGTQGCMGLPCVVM

[2] = target: GDP-bound HRAS wild-type protein (Homo sapiens, UniProt P01112); assay: Binding to HRAS by surface plasmon resonance (SPR), Single Cycle Kinetics; conditions: for HRAS/KRAS (ratio of KD value with respect to HRAS to KD value with respect to KRAS) / HRAS/KRAS (ratio of KD value for HRAS to KD value for KRAS): SPR, GDP-bound HRAS wild-type vs GDP-bound KRAS wild-type
Sequence of GDP-bound HRAS wild-type protein (P01112 whole entry): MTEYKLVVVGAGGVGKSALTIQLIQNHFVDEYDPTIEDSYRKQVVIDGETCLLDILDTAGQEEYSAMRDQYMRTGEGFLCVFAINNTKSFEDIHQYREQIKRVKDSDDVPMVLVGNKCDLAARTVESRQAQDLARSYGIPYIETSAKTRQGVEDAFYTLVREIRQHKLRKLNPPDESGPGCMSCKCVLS

| Compound | NRAS/KRAS (ratio of KD value for NRAS to KD value for KRAS) ([1]; KD ratio) | HRAS/KRAS (ratio of KD value for HRAS to KD value for KRAS) ([2]; KD ratio) | other results |
| --- | --- | --- | --- |
| CCC[C@@H]1C[C@H]2C(=O)NC3(CCCC3)C(=O)N(C)[C@@H](C3CCCC3)C(=O)N(C)[C@H](C(=O)N(C)CC)CC(=O)N(C)[C@@H](C)C(=O)N[C@@H]([C@@H](C)CC)C(=O)N(C)CC(=O)N(C)[C@H]3C/C=C\CCN(C3=O)[C@@H](Cc3ccc(C(F)(F)F)cc3)C(=O)N(C)CC(=O)N[C@@H](CCc3cc(F)c(C(F)(F)F)c(F)c3)C(=O)N2C1 [PP2272] |  |  | NRAS/KRAS (ratio of KD value with respect to NRAS to KD value with respect to KRAS) [1]: AA (a compound having 20 or more is denoted as AA); HRAS/KRAS (ratio of KD value with respect to HRAS to KD value with respect to KRAS) [2]: A (a compound having 10 or more and less than 20 is denoted as A) |
| CCCO[C@@H]1C[C@H]2C(=O)N(C)C3(CC(C)(C)C3)C(=O)N(C)[C@@H](C(CC)CC)C(=O)N(C)[C@H](C(=O)N(C)C)CC(=O)N(C)[C@@H](COC)C(=O)N[C@@H]([C@@H](C)CC)C(=O)N(C)CC(=O)N(C)[C@H]3C/C=C\CCN(C3=O)[C@@H](Cc3ccc(C)cc3)C(=O)N(C)CC(=O)N[C@@H](CCc3ccc(Cl)c(Cl)c3)C(=O)N2C1 [PP2812] |  |  | NRAS/KRAS (ratio of KD value with respect to GDP-bound NRAS wild-type protein to KD value with respect to KRAS) ([1]; KD ratio NRAS/KRAS, class symbols): AA (a compound having 20 or more is denoted as AA); HRAS/KRAS (ratio of KD value with respect to GDP-bound HRAS wild-type protein to KD value with respect to KRAS) ([2]; KD ratio HRAS/KRAS, class symbols): A (a compound having 10 or more and less than 20 is denoted as A) |
| CC[C@H](C)[C@@H]1NC(=O)[C@H](CC2CCC2)N(C)C(=O)C[C@@H](C(=O)N(C)C)N(C)C(=O)[C@H](C2CCCC2)N(C)C(=O)C2(CC(C)(C)C2)NC(=O)[C@@H]2C[C@H](C)CN2C(=O)[C@H](CCc2cc(F)c(C(F)(F)F)c(F)c2)NC(=O)CN(C)C(=O)[C@H](Cc2ccc(C(F)(F)F)cc2)N2CC/C=C\C[C@@H](C2=O)N(C)C(=O)CN(C)C1=O [PP1684] | A (a compound having 10 or more and less than 20 is denoted as A) | A (a compound having 10 or more and less than 20 is denoted as A) |  |
| CCO[C@@H]1C[C@H]2C(=O)NC3(CCCC3)C(=O)N(C)[C@@H](C3CCCC3)C(=O)N(C)[C@H](C(=O)N(C)C)CC(=O)N(C)[C@@H](CC)C(=O)N[C@@H]([C@@H](C)CC)C(=O)N(C)CC(=O)N(C)[C@H]3C[C@@H](C)CCN(C3=O)[C@@H](Cc3ccc(C(F)(F)F)cc3)C(=O)N(C)CC(=O)N[C@@H](CCc3cc(F)c(C(F)(F)F)c(F)c3)C(=O)N2C1 [PP1022] |  |  | NRAS/KRAS (ratio of KD value with respect to NRAS to KD value with respect to KRAS) ([1]; KD ratio): C (A compound having a KD ratio of 0.1 or more and less than 3 is denoted as C); HRAS/KRAS (ratio of KD value with respect to HRAS to KD value with respect to KRAS) ([2]; KD ratio): B (a compound having 3 or more and less than 10 is denoted as B) |
| CCC[C@H]1C(=O)N[C@@H]([C@@H](C)CC)C(=O)N(C)CC(=O)N(C)[C@H]2C/C=C\CCN(C2=O)[C@@H](Cc2ccc(C(F)(F)F)cc2)C(=O)N(C)CC(=O)N[C@@H](CCc2ccc(C(F)(F)F)c(OC)c2)C(=O)N2C[C@H](OCC)C[C@H]2C(=O)N(C)C2(CCC2)C(=O)N(C)[C@@H](C2CCCC2)C(=O)N(C)[C@H](C(=O)N(C)C)CC(=O)N1C [PP2312] |  |  | NRAS/KRAS (ratio of KD value with respect to NRAS to KD value with respect to KRAS) [1]: A (a compound having 10 or more and less than 20 is denoted as A); HRAS/KRAS (ratio of KD value with respect to HRAS to KD value with respect to KRAS) [2]: B (a compound having 3 or more and less than 10 is denoted as B) |
| CCCC[C@H]1C(=O)N[C@@H]([C@@H](C)CC)C(=O)N(C)CC(=O)N(C)[C@H]2C/C=C\CCN(C2=O)[C@@H](Cc2ccc(C(F)(F)F)cc2)C(=O)N(C)CC(=O)N[C@@H](CCc2cc(F)c(C(F)(F)F)c(F)c2)C(=O)N2C[C@H](OCC)C[C@H]2C(=O)NC2(CC(C)(C)C2)C(=O)N(C)[C@@H](C2CCCC2)C(=O)N(C)[C@H](C(=O)N(C)C)CC(=O)N1C [PP1649] | A (a compound having 10 or more and less than 20 is denoted as A) | B (a compound having 3 or more and less than 10 is denoted as B) |  |
| CCCN1C(=O)CN(C)C(=O)CN(C)C(=O)[C@H]([C@@H](C)CC)NC(=O)[C@H](CC(C)C)N(C)C(=O)C[C@@H](C(=O)N2CCOCC2)N(C)C(=O)[C@H](C2CCCC2)N(C)C(=O)C2(CCCC2)NC(=O)[C@H](COC)N(C)C(=O)[C@H](CCc2ccc(C(F)(F)F)c(Cl)c2)NC(=O)CN(C)C(=O)[C@@H]1Cc1ccc(C(F)(F)F)cc1 [PP1920] ([NMeL]I[Sar][Sar][NPrPhe(4-CF3)][Sar][hPhe(3-Cl-4-CF3)][NMeS](Me)[Ac5c][NMeGly(cPent)][NMeD]-Morpholide; lactam N-11) | B (a compound having 3 or more and less than 10 is denoted as B) | C (A compound having a KD ratio of 0.1 or more and less than 3 is denoted as C) |  |
| CCO[C@@H]1C[C@H]2C(=O)NC3(CC(F)(F)C3)C(=O)N(C)[C@@H](C(CC)CC)C(=O)N(C)[C@H](CC)CC(=O)N(C)[C@@H](CC)C(=O)N[C@@H]([C@@H](C)CC)C(=O)N(C)CC(=O)N(C)[C@H]3C/C=C\CCN(C3=O)[C@@H](Cc3ccc(C(F)(F)F)cc3)C(=O)N(C)CC(=O)N[C@@H](CCc3cc(F)c(C(F)(F)F)c(F)c3)C(=O)N2C1 [PP1626] | A (a compound having 10 or more and less than 20 is denoted as A) | A (a compound having 10 or more and less than 20 is denoted as A) |  |

Source: US20250230193A1, “CYCLIC COMPOUND HAVING SELECTIVE KRAS INHIBITORY EFFECT ON HRAS AND NRAS” (CHUGAI SEIYAKU KABUSHIKI KAISHA, priority 2022, published 2025)
